Test results as given in patent US20230278972A1, “SUBSTITUTED HALOALKYL SULFONANILIDE HERBICIDES” (FMC Corporation, priority 2020, published 2023).

Key:
Assay type in all cases: in vivo
[1] = test system: kochia (Bassia scoparia); assay: Test A postemergence, kochia; settings: Postemergence, 0 to 100 scale (0 no effect, 100 complete control); for Plant response rating, Kochia: 125 g ai/ha; for Kochia plant response rating: 500 g ai/ha, visual injury vs untreated controls after approx. 10 days
Summary of the method: (§1)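 Greenhouse pot test in a loam–sand blend; compounds delivered in a non-phytotoxic solvent carrying a surfactant, applied either as a directed spray to soil at seeding or over seedlings 2 to 10 cm high with one to two leaves.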

[2] = test system: pigweed (Amaranthus retroflexus); assay: Test A postemergence, pigweed; settings: Postemergence, 0 to 100 scale (0 no effect, 100 complete control); for Plant response rating, Pigweed: 125 g ai/ha; for Pigweed plant response rating: 500 g ai/ha, visual injury vs untreated controls after approx. 10 days
Summary of the method: as §1

[3] = test system: pigweed (Amaranthus retroflexus); assay: Test A preemergence, pigweed; settings: for Plant response rating, Pigweed: 0 to 100 scale (0 no effect, 100 complete control)
Description: Seeds of plant species selected from barnyardgrass (Echinochloa crus-galli), kochia (Bassia scoparia), ragweed (common ragweed, Ambrosia artemisiifolia), Ryegrass, Italian (Italian ryegrass, Lolium multiflorum), Foxtail, Giant (giant foxtail, Setaria faberi), and pigweed (Amaranthus retroflexus) were planted into a blend of loam soil and sand and treated preemergence with a directed soil spray using test chemicals formulated in a non-phytotoxic solvent mixture which included a surfactant. At the same time, plants selected from these weed species and also wheat (Triticum aestivum), corn (Zea mays), blackgrass (Alopecurus myosuroides), and galium (catchweed bedstraw, Galium aparine) were planted in pots containing the same blend of loam soil and sand and treated with postemergence applications of test chemicals formulated in the same manner. Plants ranged in height from 2 to 10 cm and were in the one- to two-leaf stage for the postemergence treatment. […] A dash (-) response means no test result.

[4] = test system: Ryegrass, Italian (Italian ryegrass, Lolium multiflorum); assay: Test A postemergence, Ryegrass, Italian; settings: Postemergence, 0 to 100 scale (0 no effect, 100 complete control); for Plant response rating, Ryegrass, Italian: 125 g ai/ha; for Ryegrass, Italian plant response rating: 500 g ai/ha, visual injury vs untreated controls after approx. 10 days
Summary of the method: as §1

[5] = test system: Foxtail, Giant (giant foxtail, Setaria faberi); assay: Test A postemergence, Foxtail, Giant; settings: Postemergence, 0 to 100 scale (0 no effect, 100 complete control); for Plant response rating, Foxtail, Giant: 125 g ai/ha; for Foxtail, Giant plant response rating: 500 g ai/ha, visual injury vs untreated controls after approx. 10 days
Summary of the method: as §1

[6] = test system: Foxtail, Giant (giant foxtail, Setaria faberi); assay: Test A preemergence, Foxtail, Giant; settings: Preemergence; for Plant response rating, Foxtail, Giant: 0 to 100 scale (0 no effect, 100 complete control)
Summary of the method: as §1

[7] = test system: Ryegrass, Italian (Italian ryegrass, Lolium multiflorum); assay: Test A preemergence, Ryegrass, Italian; settings: Preemergence; for Plant response rating, Ryegrass, Italian: 0 to 100 scale (0 no effect, 100 complete control)
Summary of the method: as §1

[8] = test system: ragweed (common ragweed, Ambrosia artemisiifolia); assay: Test A preemergence, ragweed; settings: Preemergence; for Plant response rating, Ragweed: 0 to 100 scale (0 no effect, 100 complete control)
Summary of the method: as §1

[9] = test system: kochia (Bassia scoparia); assay: Test A preemergence, kochia; settings: Preemergence; for Plant response rating, Kochia: 0 to 100 scale (0 no effect, 100 complete control)
Summary of the method: as §1

[10] = test system: galium (catchweed bedstraw, Galium aparine); assay: Test A postemergence, galium; settings: Postemergence, 0 to 100 scale (0 no effect, 100 complete control); for Plant response rating, Galium: 125 g ai/ha; for Galium plant response rating: 500 g ai/ha, visual injury vs untreated controls after approx. 10 days
Summary of the method: (§2)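 After sowing into a sand-amended loam, pots for the preemergence test were treated by spraying directly onto soil. In parallel, seedlings at the one- to two-leaf stage and 2 to 10 cm tall were treated postemergence with the identical surfactant-containing formulation.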

[11] = test system: blackgrass (Alopecurus myosuroides); assay: Test A postemergence, blackgrass; settings: Postemergence, 0 to 100 scale (0 no effect, 100 complete control); for Plant response rating, Blackgrass: 125 g ai/ha; for Blackgrass plant response rating: 500 g ai/ha, visual injury vs untreated controls after approx. 10 days
Summary of the method: as §1

[12] = test system: ragweed (common ragweed, Ambrosia artemisiifolia); assay: Test A postemergence, ragweed; settings: Postemergence, 0 to 100 scale (0 no effect, 100 complete control); for Plant response rating, Ragweed: 125 g ai/ha; for Ragweed plant response rating: 500 g ai/ha, visual injury vs untreated controls after approx. 10 days
Summary of the method: as §1

[13] = test system: wheat (Triticum aestivum); assay: Test A postemergence, wheat; settings: Postemergence, 0 to 100 scale (0 no effect, 100 complete control); for Plant response rating, Wheat: 125 g ai/ha; for Wheat plant response rating: 500 g ai/ha, visual injury vs untreated controls after approx. 10 days
Summary of the method: as §2

[14] = test system: corn (Zea mays); assay: Test A postemergence, corn; settings: Postemergence, 0 to 100 scale (0 no effect, 100 complete control); for Plant response rating, Corn: 125 g ai/ha; for Corn plant response rating: 500 g ai/ha, visual injury vs untreated controls after approx. 10 days
Summary of the method: as §1

[15] = test system: barnyardgrass (Echinochloa crus-galli); assay: Test A preemergence, barnyardgrass; settings: Preemergence; for Plant response rating, Barnyardgrass: 0 to 100 scale (0 no effect, 100 complete control)
Summary of the method: as §1

[16] = 125 g ai/ha, visual injury, approx. 10 days
[17] = 125 g ai/ha, visual injury on 0 to 100 scale (0 no effect, 100 complete control), approximately 10 days

| Compound | Plant response rating, Kochia [1] | Kochia plant response rating [1] | Plant response rating, Pigweed [2] | Pigweed plant response rating [2] | Plant response rating, Pigweed [3, 16] | Plant response rating, Pigweed ([3]; 500 g ai/ha) | Plant response rating, Ryegrass, Italian [4] | Ryegrass, Italian plant response rating [4] | Plant response rating, Foxtail, Giant [5] | Foxtail, Giant plant response rating [5] | Plant response rating, Foxtail, Giant ([6]; 500 g ai/ha) | Plant response rating, Ryegrass, Italian ([7]; 500 g ai/ha) | Plant response rating, Ragweed ([8]; 500 g ai/ha) | Plant response rating, Kochia ([9]; 500 g ai/ha) | Galium plant response rating [10] | Blackgrass plant response rating [11] | Ragweed plant response rating [12] | Wheat plant response rating [13] | Corn plant response rating [14] | Plant response rating, Barnyardgrass ([15]; 500 g ai/ha) | other results |
| --- | --- | --- | --- | --- | --- | --- | --- | --- | --- | --- | --- | --- | --- | --- | --- | --- | --- | --- | --- | --- | --- |
| Cc1cc(Cl)c(NS(=O)(=O)C(F)(F)F)cc1C(=O)N1CCC(F)CC1 [Compound 201] | 60 | 90 | 60 | 100 | 100 | 100 | 30 | 70 | 50 | 90 | 100 | 90 | 100 | 100 | 90 | 30 | 90 | 70 | 50 | 100 | Plant response rating, Foxtail, Giant [6, 16]: 50; Plant response rating, Ryegrass, Italian [7, 16]: 60; Plant response rating, Ragweed [8, 16]: 70; Plant response rating, Kochia [9, 16]: 90; Plant response rating, Galium [10]: 90; Plant response rating, Blackgrass [11]: 20; Plant response rating, Ragweed [12]: 80; Plant response rating, Wheat [13]: 60; Plant response rating, Corn [14]: 20; Plant response rating, Barnyardgrass [15, 16]: 50 |
| Cc1cc(Cl)c(N(S(=O)(=O)C(F)(F)F)S(=O)(=O)C(F)(F)F)cc1C(=O)N1CCC(Cl)CC1 [Compound 200] | 10 | 40 | 60 | 90 | 100 | 100 | 20 | 20 | 0 | 20 | 100 | 90 | 90 | 90 | 90 | 0 | 30 | 70 | 20 | 100 | Plant response rating, Foxtail, Giant [6, 16]: 90; Plant response rating, Ryegrass, Italian [7, 16]: 30; Plant response rating, Ragweed [8, 16]: 40; Plant response rating, Kochia [9, 16]: 60; Plant response rating, Galium [10]: 60; Plant response rating, Blackgrass [11]: 0; Plant response rating, Ragweed [12]: 0; Plant response rating, Wheat [13]: 20; Plant response rating, Corn [14]: 0; Plant response rating, Barnyardgrass [15, 16]: 30 |
| Cc1cc(C)c(N(S(=O)(=O)C(F)(F)F)S(=O)(=O)C(F)(F)F)cc1C1=NOC2(CCC2)C1 [Compound 196] | 10 | 20 | 30 | 50 | 50 | 100 | 0 | 30 | 0 | 0 | 100 | 70 | 0 | 80 | 80 | 0 | 30 | 0 | 0 | 90 | Plant response rating, Foxtail, Giant [6, 16]: 30; Plant response rating, Ryegrass, Italian [7, 16]: 20; Plant response rating, Ragweed [8, 16]: 0; Plant response rating, Kochia [9, 16]: 70; Plant response rating, Galium [10]: 60; Plant response rating, Blackgrass [11]: 0; Plant response rating, Ragweed [12]: 0; Plant response rating, Wheat [13]: 0; Plant response rating, Corn [14]: 0; Plant response rating, Barnyardgrass [15, 16]: 0 |
| Cc1cc(-c2cc(N(S(=O)(=O)C(F)(F)F)S(=O)(=O)C(F)(F)F)c(C)cc2C)c(=O)n(C)n1 [Compound 75] | – | 80 | – | 80 | – | 100 | – | 60 | – | 90 | 100 | 100 | 80 | 100 | 90 | 70 | 50 | 70 | 0 | 100 | Plant response rating, Kochia ([1]; visual injury approx. 10 days): 20; Plant response rating, Pigweed ([2]; visual injury approx. 10 days): 40; Pigweed plant response rating [3, 17]: 80; Plant response rating, Ryegrass, Italian ([4]; visual injury approx. 10 days): 20; Plant response rating, Foxtail, Giant ([5]; visual injury approx. 10 days): 30; Foxtail, Giant plant response rating [6, 17]: 100; Ryegrass, Italian plant response rating [7, 17]: 80; Ragweed plant response rating [8, 17]: 20; Kochia plant response rating [9, 17]: 80; Plant response rating, Galium ([10]; visual injury approx. 10 days): 70; Plant response rating, Blackgrass ([11]; visual injury approx. 10 days): 30; Plant response rating, Ragweed ([12]; visual injury approx. 10 days): 0; Plant response rating, Wheat ([13]; visual injury approx. 10 days): 40; Plant response rating, Corn ([14]; visual injury approx. 10 days): 0; Barnyardgrass plant response rating [15, 17]: 90 |
